Assay results published in paper PMC6268586, “Effect of Wine and Vinegar Processing of Rhizoma Corydalis on the Tissue Distribution of Tetrahydropalmatine, Protopine and Dehydrocorydaline in Rats” (Molecules, 2012).
Like-named read-outs stand apart in the source and are kept apart here.

Assay: Tissue distribution of THP, DHC and protopine in rat tissues after gastric gavage administration (HPLC-UV, non-compartmental analysis)
Type: in vivo, Wistar male rats
Conditions: for AUC(0-t) / Cmax / MRT / Tmax: male, Wistar, po, 6.45 mg/kg; for AUC(0-t): read-out: AUC0–24 h of THP; for Cmax: read-out: Cmax of THP; for MRT: read-out: MRT of THP; for Tmax: read-out: Tmax of THP
Description: The experimental protocol was approved by the University's Animal Ethics Committee. […] Rats had unlimited access to water. Standard food was given until 12 h before the experiments. Rhizoma Corydalis was processed according to Pharmacopoeia of Chinese Medicine and National Guideline of Traditional Chinese Medicinal Plants Processing. Briefly, fresh Rhizoma Corydalis was boiled in water till the pith turn light brown color. Cooked rhizome was sliced into pieces (4 mm, diameter) and dried at 25 °C. Dried slices were mixed with edible vinegar (100:20, rhizome/vinegar, w/v) or yellow wine (100:10, rhizome/wine, w/v) and the slices allowed to completely absorb the vinegar or wine. The soaked slices were then stir-fried in a metallic pan over a low flame till they were completely dry. The processed Rhizoma Corydalis was added with 70% ethanol (1:30 w/v) and sonicated for 1 h at room temperature. The extract was then concentrated to remove the ethanol residue and stored at 4 °C for further use. […] The ethanol extract of the unprocessed Rhizoma Corydalis and THP, DHC and protopine pure compound were used as the controls. Three hundred and sixty healthy rats were used in total and are divided into six groups (Group 1-6, sixty rats per group). Drugs were administrated by gastric gavage method. In order to keep the dose of THP, DHC and protopine constant in each group, the amount of ethanol extract of Rhizoma Corydalis administrated was normalized based on the dose of protopine pure compound used. The dose of THP and DHC pure compound administrated was same with that in the ethanol extract of Rhizoma Corydalis. The details were listed below. […] Rats were administrated with the 70% ethanol extract of unprocessed Rhizoma Corydalis at a dose of 17.75 g extract/kg body weight. […] Rats received the extract of vinegar-processed Rhizoma Corydalis at a dose of 15 g extract/kg rat body weight. Group 3: Rats were administrated with the extract of wine processed Rhizoma Corydalis at a dose of 15.78 g extract/kg body weight. […] Rats received THP pure compound at a dose of 6.45 mg/kg body weight. Group 6: Rats were administrated 26.10 mg of DHC pure compound/kg body weight. […] Brian tissue was further dissected into six parts: cerebrum, cerebellum, diencephalons, brain stem, hippocampus and striatum. All the tissue samples were rinsed with ice-old saline and stored at -20 °C until extraction. Tissue samples were homogenized in three volumes of ice-cold biological saline and centrifuged for 10 min at 10,000 g and 4 °C. An aliquot of the supernatant (0.5 mL) was collected. Liquid-liquid extraction was used to extract THP, DHC and protopine. One hundred microliter of 1.0 μg/mL nuciferin (internal standard) was mixed with 0.5 mL aliquots of the supernatant. […] The supernatant was evaporated completely under the nitrogen stream in a 60 °C water bath. The residue was redissolved in 100 μL of methanol. A CoMetro HPLC system (CoMetro Technology Ltd, South […], NJ, USA) with 6000 PVW detector UV-VIS detector was used. […] Ltd., Liaoning, China). Other chromatographic conditions were: column temperature, 35 °C; mobile phase, acetonitrile-0.1% phosphoric acid (pH 3.0) (30:70 v/v); flow rate, 1 mL/min; wavelength, 280 nm. Pharmacokinetic parameters were estimated by non-compartmental analysis using Equiv Test/PK (Statistical Solutions Ltd., Saugus, MA, USA). The maximum concentration (Cmax) and the time to reach the maximum concentration (Tmax) were directly obtained from the observed value. All data were represented as mean ± SD. Comparison of values between groups was performed using one-way ANOVA followed by Tukey's test for comparisons among four groups.

Compound COc1cc2c(cc1OC)[C@@H]1Cc3ccc(OC)c(OC)c3CN1CC2 [THP, tetrahydropalmatine] has an AUC(0-t) (rat brainstem) of 1490 ± 340 ng·h/mL, a Cmax (rat brainstem) of 370 ± 110 ng/mL and an MRT (rat brainstem) of 7.53 ± 0.26 h. The Tmax (rat brainstem) was 0.25 h, the AUC(0-t) (rat cerebellum) was 990 ± 220 ng·h/mL and the Cmax (rat cerebellum) was 150 ± 30 ng/mL. The MRT (rat cerebellum) was 9.2 ± 0.61 h, the Tmax (rat cerebellum) was 0.26 ± 0.02 h and the AUC(0-t) (rat cerebrum) was 860 ± 200 ng·h/mL. The Cmax (rat cerebrum) was 250 ± 72 ng/mL, the MRT (rat cerebrum) was 8 ± 0.25 h and the Tmax (rat cerebrum) was 0.26 ± 0.01 h. It also gave an AUC(0-t) (rat diencephalons) of 1670 ± 380 ng·h/mL, a Cmax (rat diencephalons) of 460 ± 130 ng/mL and an MRT (rat diencephalons) of 7.7 ± 0.28 h. It also gave a Tmax (rat diencephalons) of 0.27 ± 0.04 h, an AUC(0-t) (rat heart) of 1430 ± 320 ng·h/mL and a Cmax (rat heart) of 600 ± 180 ng/mL. The MRT (rat heart) was 4.83 ± 0.13 h, the Tmax (rat heart) was 0.25 h and the AUC(0-t) (rat hippocampus) was 1790 ± 400 ng·h/mL. For the same compound, the Cmax (rat hippocampus) was 470 ± 130 ng/mL, the MRT (rat hippocampus) was 7.04 ± 0.23 h and the Tmax (rat hippocampus) was 0.24 ± 0.05 h. It also gave an AUC(0-t) (rat kidney) of 6270 ± 1430 ng·h/mL, a Cmax (rat kidney) of 2050 ± 570 ng/mL and an MRT (rat kidney) of 4.37 ± 0.1 h. For the same compound, the Tmax (rat kidney) was 0.33 ± 0.09 h, the AUC(0-t) (rat liver) was 5570 ± 2600 ng·h/mL and the Cmax (rat liver) was 7840 ± 1740 ng/mL. It also gave an MRT (rat liver) of 3.99 ± 0.08 h, a Tmax (rat liver) of 0.21 ± 0.01 h and an AUC(0-t) (rat lung) of 5930 ± 1320 ng·h/mL. It also gave a Cmax (rat lung) of 1530 ± 450 ng/mL, an MRT (rat lung) of 5.34 ± 0.15 h and a Tmax (rat lung) of 0.26 ± 0.08 h. The AUC(0-t) (rat spleen) was 3270 ± 740 ng·h/mL, the Cmax (rat spleen) was 1540 ± 450 ng/mL and the MRT (rat spleen) was 4.34 ± 0.09 h. The Tmax (rat spleen) was 0.23 h, the AUC(0-t) (rat striatum) was 2470 ± 570 ng·h/mL and the Cmax (rat striatum) was 720 ± 210 ng/mL. For the same compound, the MRT (rat striatum) was 7.69 ± 0.26 h, the Tmax (rat striatum) was 0.21 ± 0.03 h and the “elimination of THP from the tissues” value (rat tissues) was “rarely found after 8 h”. The “time after administration at which THP was detected in all the tissues examined” value (rat tissues) was no more than 5 min.
